In patent US11648222B2, “Use of CYP26-resistant RAR alpha selective agonists in the treatment of cancer” (Io Therapeutics, Inc., priority 2015, dated 2023) one finds clonogenic growth, differentiation and apoptosis and clinical effectiveness data, which are given here for one molecule.

Assay [1] relates to OCI-AML 3, Kasumi-1 and APL NB4 cells. The experiment in a line: Clonogenic growth of AML cell lines in the presence or absence of stroma. It is filed as cell-based. The conditions noted are these: presence or absence of stroma. Here is the method:
The BM stroma, which expresses inducibly high levels of CYP26, metabolically inactivates ATRA and provides a protected environment for AML cancer stem cells. Synthetic, CYP26-resistant RARα agonists, such as IRX5183 and AM80, should be able to bypass stroma-mediated protection of AML cells and differentiate the cancer stem cells resident in the protected environment of bone marrow niche. To test these hypotheses, clonogenic growth experiments were conducted in the non-APL AML cell lines OCI-AML 3 and Kasumi-1 and APL NB4 cells, which were treated with ATRA, IRX5183, and AM80 in the presence or absence of stroma.

A further assay has as its system non-APL AML cells. To be noted: in vitro; cited from earlier work.
For another assay, the system named is AML. The conditions noted are these: patients; cited from earlier work.

Each structure is given as a SMILES string.

For the molecule `CC1=C(/C=C/C(C)=C/C=C/C(C)=C/C(=O)O)C(C)(C)CCC1` [ATRA, All-trans retinoic acid], the clonogenic growth entry in assay [1] is listed as “inhibited clonogenic growth only in the absence of stroma”. Also, the differentiation and apoptosis result with non-APL AML cells was “causes terminal differentiation and apoptosis”. The clinical effectiveness entry in the assay with AML was “clinically ineffective”.
